In patent EP0584797A2, “Novel cephalosporin compounds and processes for the preparation thereof” (LUCKY LTD., priority 1992, dated 1994):
≈ marks a conversion by molar mass, not a printed value.

Key:
Assay in all cases: minimal inhibitory concentration, two-fold agar dilution
Format in all cases: cell-based
[1] = system: Shigella sonnei ATCC 11060; conditions: ATCC11060, Muller-Hinton agar, 37°C, 20 hours, read-out: MIC values against the standard strains
Method in brief: (§1)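 Compounds were serially diluted two-fold into Mueller-Hinton agar, and each plate was spot-inoculated with the test strain at 10⁷ CFU per ml. Plates were incubated at 37°C for 20 hours before MIC values were read.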

[2] = system: Serratia marcescens ATCC 27117; conditions: ATCC27117, Muller-Hinton agar, 37°C, 20 hours, read-out: MIC values against the standard strains
Method in brief: as §1

[3] = system: Escherichia coli ATCC 25922; conditions: ATCC25922, Muller-Hinton agar, 37°C, 20 hours, read-out: MIC values against the standard strains
Method in brief: as §1

[4] = system: Klebsiella pneumoniae ATCC 10031; conditions: ATCC10031, Muller-Hinton agar, 37°C, 20 hours, read-out: MIC values against the standard strains
Method in brief: as §1

[5] = system: Bacillus megaterium ATCC 9885; conditions: Priestia megaterium, ATCC9885; Muller-Hinton agar; 37°C; 20 hours; read-out: MIC values against the standard strains
Method in brief: as §1

[6] = system: Citrobacter freundii ATCC 8090; conditions: ATCC8090, Muller-Hinton agar, 37°C, 20 hours, read-out: MIC values against the standard strains
Method in brief: as §1

[7] = system: Streptococcus faecalis ATCC 29212; conditions: Enterococcus faecalis, ATCC29212; Muller-Hinton agar; 37°C; 20 hours; read-out: MIC values against the standard strains
Method in brief: as §1

[8] = system: Enterobacter cloacae ATCC 27508; conditions: ATCC27508, Muller-Hinton agar, 37°C, 20 hours, read-out: MIC values against the standard strains
Method in brief: as §1

[9] = system: Pseudomonas aeruginosa ATCC 27853; conditions: ATCC27853, Muller-Hinton agar, 37°C, 20 hours, read-out: MIC values against the standard strains
Method in brief: as §1

[10] = system: Morganella morganii ATCC 8076h; conditions: ATCC8076H, Muller-Hinton agar, 37°C, 20 hours, read-out: MIC values against the standard strains
Method in brief: as §1

[11] = system: Escherichia coli ATCC 10536; conditions: ATCC10536, Muller-Hinton agar, 37°C, 20 hours, read-out: MIC values against the standard strains
Method in brief: as §1

[12] = system: Staphylococcus epidermidis ATCC 12228; conditions: ATCC12228, Muller-Hinton agar, 37°C, 20 hours, read-out: MIC values against the standard strains
Method in brief: as §1

[13] = system: Shigella flexneri ATCC 11836; conditions: ATCC11836, Muller-Hinton agar, 37°C, 20 hours, read-out: MIC values against the standard strains
Method in brief: as §1

[14] = system: Proteus mirabilis ATCC 25933; conditions: ATCC25933, Muller-Hinton agar, 37°C, 20 hours, read-out: MIC values against the standard strains
Method in brief: as §1

[15] = system: Micrococcus luteus ATCC 9341; conditions: ATCC9341, Muller-Hinton agar, 37°C, 20 hours, read-out: MIC values against the standard strains
Method in brief: as §1

[16] = system: Proteus vulgaris ATCC 6059; conditions: ATCC6059, Muller-Hinton agar, 37°C, 20 hours, read-out: MIC values against the standard strains
Method in brief: as §1

[17] = system: Staphylococcus aureus ATCC 6538p; conditions: ATCC6538P, Muller-Hinton agar, 37°C, 20 hours, read-out: MIC values against the standard strains
Method in brief: as §1

[18] = system: Enterobacter aerogenes ATCC 29751; conditions: Klebsiella aerogenes, ATCC29751; Muller-Hinton agar; 37°C; 20 hours; read-out: MIC values against the standard strains
Method in brief: as §1

[19] = system: Salmonella typhimurium ATCC 14028; conditions: Salmonella enterica; Muller-Hinton agar; 37°C; 20 hours; read-out: MIC values against the standard strains
Method in brief: as §1

[20] = system: Providencia rettgeri ATCC 9250; conditions: ATCC9250, Muller-Hinton agar, 37°C, 20 hours, read-out: MIC values against the standard strains
Method in brief: as §1

[21] = system: Pseudomonas aeruginosa ATCC 25619; conditions: ATCC25619, Muller-Hinton agar, 37°C, 20 hours, read-out: MIC values against the standard strains
Method in brief: as §1

[22] = system: Bacillus cereus ATCC 11778; conditions: ATCC11778, Muller-Hinton agar, 37°C, 20 hours, read-out: MIC values against the standard strains
Method in brief: as §1

[23] = system: Staphylococcus aureus ATCC 10537; conditions: ATCC10537, Muller-Hinton agar, 37°C, 20 hours, read-out: MIC values against the standard strains
Method in brief: as §1

[24] = system: Pseudomonas aeruginosa ATCC 10145; conditions: ATCC10145, Muller-Hinton agar, 37°C, 20 hours, read-out: MIC values against the standard strains
Method in brief: as §1

[25] = system: Acinetobacter calcoaceticus ATCC 15473; conditions: ATCC15473, Muller-Hinton agar, 37°C, 20 hours, read-out: MIC values against the standard strains
Method in brief: as §1

Row | Structure (SMILES) | MIC [1] [µg/mL] | MIC [2] [µg/mL] | MIC [3] [µg/mL] | MIC [4] [µg/mL] | MIC [5] [µg/mL] | MIC [6] [µg/mL] | MIC [7] [µg/mL] | MIC [8] [µg/mL] | MIC [9] [µg/mL] | MIC [10] [µg/mL] | MIC [11] [µg/mL] | MIC [12] [µg/mL] | MIC [13] [µg/mL] | MIC [14] [µg/mL] | MIC [15] [µg/mL] | MIC [16] [µg/mL] | MIC [17] [µg/mL] | MIC [18] [µg/mL] | MIC [19] [µg/mL] | MIC [20] [µg/mL] | further results
1 | CNc1cc(N)nc(SCC2=C(C(=O)[O-])N3C(=O)[C@@H](NC(=O)/C(=N\OC(C)(C)C(=O)O)c4csc(N)n4)[C@H]3SC2)[n+]1C [Example 35, 7-[(Z)-2-(2-aminothiazol-4-yl)-2-(carboxyprop-2-oxyimino)acetamido]-3-(4-amino-6-methylamino-1-methylpyrimidinium-2-yl)thiomethyl-3-cephem-4-carboxylate] | 0.063 (≈ 0.0988 µM) | 0.13 (≈ 0.204 µM) | 0.063 (≈ 0.0988 µM) | 0.063 (≈ 0.0988 µM) | 0.5 (≈ 0.784 µM) | 0.063 (≈ 0.0988 µM) | > 128 | ≤ 0.008 | 2 (≈ 3.14 µM) | ≤ 0.008 | 0.063 (≈ 0.0988 µM) | 2 (≈ 3.14 µM) | 0.031 (≈ 0.0486 µM) | 0.031 (≈ 0.0486 µM) | 0.25 (≈ 0.392 µM) | 0.063 (≈ 0.0988 µM) | 4 (≈ 6.27 µM) | 1 (≈ 1.57 µM) | 0.13 (≈ 0.204 µM) | ≤ 0.008 | MIC [21]: 2 µg/mL (≈ 3.14 µM); MIC [22]: 128 µg/mL (≈ 201 µM); MIC [23]: 2 µg/mL (≈ 3.14 µM); MIC [24]: 2 µg/mL (≈ 3.14 µM); MIC [25]: 8 µg/mL (≈ 12.5 µM)
2 | CCO/N=C(\C(=O)N[C@@H]1C(=O)N2C(C(=O)[O-])=C(CSc3nc(N)cc(NC)[n+]3C)CS[C@H]12)c1csc(N)n1 [Example 36, 7-[(Z)-2-(2-aminothiazol-4-yl)-2-(ethoxyimino)acetamido]-3-(4-amino-6-methylamino-1-methylpyrimidinium-2-yl)thiomethyl-3-cephem-4-carboxylate] | 0.063 (≈ 0.109 µM) | 0.13 (≈ 0.224 µM) | 0.063 (≈ 0.109 µM) | ≤ 0.008 | 0.063 (≈ 0.109 µM) | 0.016 (≈ 0.0276 µM) | 32 (≈ 55.2 µM) | ≤ 0.008 | 4 (≈ 6.9 µM) | 0.016 (≈ 0.0276 µM) | 0.031 (≈ 0.0535 µM) | 0.031 (≈ 0.0535 µM) | ≤ 0.008 | 0.25 (≈ 0.431 µM) | ≤ 0.008 | 0.25 (≈ 0.431 µM) | 0.25 (≈ 0.431 µM) | 0.13 (≈ 0.224 µM) | 0.13 (≈ 0.224 µM) | ≤ 0.008 | MIC [21]: 0.5 µg/mL (≈ 0.863 µM); MIC [22]: 32 µg/mL (≈ 55.2 µM); MIC [23]: 0.13 µg/mL (≈ 0.224 µM); MIC [24]: 8 µg/mL (≈ 13.8 µM); MIC [25]: 4 µg/mL (≈ 6.9 µM)
3 | Nc1cc[n+](N)c(SCC2=C(C(=O)[O-])N3C(=O)[C@@H](NC(=O)/C(=N\OCC(=O)O)c4csc(N)n4)[C@H]3SC2)n1 [Example 75, 7-[(Z)-2-(2-aminothiazol-4-yl)-2-(carboxymethoxyimino)acetamido]-3-(1,4-diaminopyrimidinium-2-yl)thiomethyl-3-cephem-4-carboxylate] | 0.016 (≈ 0.0275 µM) | 0.031 (≈ 0.0533 µM) | 0.016 (≈ 0.0275 µM) | 0.016 (≈ 0.0275 µM) | 0.5 (≈ 0.86 µM) | 0.031 (≈ 0.0533 µM) | > 128 | ≤ 0.008 | 4 (≈ 6.88 µM) | ≤ 0.008 | 0.016 (≈ 0.0275 µM) | 4 (≈ 6.88 µM) | 0.016 (≈ 0.0275 µM) | 0.063 (≈ 0.108 µM) | 2 (≈ 3.44 µM) | 0.031 (≈ 0.0533 µM) | 8 (≈ 13.8 µM) | 0.5 (≈ 0.86 µM) | 0.063 (≈ 0.108 µM) | ≤ 0.008 | MIC [21]: 4 µg/mL (≈ 6.88 µM); MIC [22]: 128 µg/mL (≈ 220 µM); MIC [23]: 4 µg/mL (≈ 6.88 µM); MIC [24]: 8 µg/mL (≈ 13.8 µM); MIC [25]: 4 µg/mL (≈ 6.88 µM)
4 | CCO/N=C(\C(=O)N[C@@H]1C(=O)N2C(C(=O)[O-])=C(CSc3nc(N)c4cccnc4[n+]3C)CS[C@H]12)c1csc(N)n1 [Example 31, 7-[(Z)-2-(2-aminothiazol-4-yl)-2-(ethoxyimino)acetamido]-3-(6-amino-3-methylpyrido[5,6,e]pyrimidinium-4-yl)thiomethyl-3-cephem-4-carboxylate] | 0.25 (≈ 0.415 µM) | 1 (≈ 1.66 µM) | 0.13 (≈ 0.216 µM) | ≤ 0.008 | 0.13 (≈ 0.216 µM) | 0.25 (≈ 0.415 µM) | 16 (≈ 26.6 µM) | 0.016 (≈ 0.0266 µM) | 16 (≈ 26.6 µM) | 0.016 (≈ 0.0266 µM) | 0.25 (≈ 0.415 µM) | 0.063 (≈ 0.105 µM) | 0.13 (≈ 0.216 µM) | 1 (≈ 1.66 µM) | 0.031 (≈ 0.0515 µM) | 1 (≈ 1.66 µM) | 0.13 (≈ 0.216 µM) | 0.5 (≈ 0.831 µM) | 1 (≈ 1.66 µM) | 0.016 (≈ 0.0266 µM) | MIC [21]: 4 µg/mL (≈ 6.65 µM); MIC [22]: 32 µg/mL (≈ 53.2 µM); MIC [23]: 0.13 µg/mL (≈ 0.216 µM); MIC [24]: 32 µg/mL (≈ 53.2 µM); MIC [25]: 16 µg/mL (≈ 26.6 µM)
5 | CC(C)(O/N=C(\C(=O)N[C@@H]1C(=O)N2C(C(=O)[O-])=C(C[n+]3ccccc3)CS[C@H]12)c1csc(N)n1)C(=O)O [Ceftazidime, reference compound] | 0.13 (≈ 0.238 µM) | 0.13 (≈ 0.238 µM) | 0.13 (≈ 0.238 µM) | 0.13 (≈ 0.238 µM) | 0.25 (≈ 0.457 µM) | 0.13 (≈ 0.238 µM) | > 128 | 0.031 (≈ 0.0567 µM) | 1 (≈ 1.83 µM) | ≤ 0.008 | 0.13 (≈ 0.238 µM) | 4 (≈ 7.32 µM) | 0.031 (≈ 0.0567 µM) | 0.063 (≈ 0.115 µM) | 0.5 (≈ 0.915 µM) | 0.063 (≈ 0.115 µM) | 8 (≈ 14.6 µM) | 8 (≈ 14.6 µM) | 0.25 (≈ 0.457 µM) | ≤ 0.008 | MIC [21]: 1 µg/mL (≈ 1.83 µM); MIC [22]: 128 µg/mL (≈ 234 µM); MIC [23]: 4 µg/mL (≈ 7.32 µM); MIC [24]: 2 µg/mL (≈ 3.66 µM); MIC [25]: 2 µg/mL (≈ 3.66 µM)
